This is an account of results in patent US20030165853A1, “Antisense imaging of gene expression of the brain in vivo” (The Regents of the University of California Office of …, priority 2000, published 2003).

For data set [1], the target named is rat transferrin receptor (rat) (UniProt Q99376). Briefly: cell-based or functional assay.
A further data set deals with C6 cells. Briefly: Uptake of [125I]PNA tracers in cultured C6 cells. The class given is cell-based, rat. As to conditions: 2-24 h incubation, TCA-precipitable cellular fraction. The procedure: (§1) The uptake of ^125I-labeled antirev or antiluciferase PNA was investigated in C6-790 and C6 cells in the presence or absence of OX26/SA. Cells were grown in 24 well dishes and incubated with 5 μCi/ml (12 nM) [^125I]PNA with and without OX26/SA (1:1 molar ratio) for 2, 4, 6, or 24 h. The monolayers were then washed 3 times in 2.5 ml cold PBS (10 mM phosphate buffer, pH 7.2/150 mM NaCl) and lysed with 250 μl reporter lysis buffer (Promega), as previously described (Boado and Pardridge (1998) Mol. Brain Res. 59: 109-113). Aliquots of samples (100 μl) and standards (10 μl) were precipitated with TCA, and the percent of medium PNA that was taken up into the TCA-precipitable cellular fraction was measured and expressed either as nanograms PNA per milligram protein or percentage uptake per milligram protein. Twenty-microliter lysate aliquots were also resolved by SDS in a 12% gel. Gels were fixed in 50% MeOH and 10% acetic acid solution for 30 min, incubated in 7% MeOH, 7% acetic acid and 1% glycerol for 5 min, and dried before autoradiography with Kodak BioMax film and intensifying screens. For the pulse-chase study, either control C6 or C6-790 cells were incubated as described above with 10 μCi/ml (24 nM) [^125I]antiluciferase PNA conjugated to OX26SA for 24 h. […] TCA-precipitable cellular radioactivity was then measured at 0, 2, 6, or 24 h of incubation.

In a further data set the test system is C6-790 cells. Briefly: Uptake of [125I]PNA tracers in cultured C6-790 cells. In kind it is cell-based, rat. As to conditions: 2-24 h incubation, TCA-precipitable cellular fraction. The procedure:
as §1

The subject of data set [2] is luciferase mRNA. Briefly: Luciferase RNase protection assay. In kind it is binding, firefly. Conditions: RNase A/T1 protection. The procedure:
These methods were identical to those described previously (Pardridge et al. (1995) Proc. Natl. Acad. Sci., USA, 92: 5592-5596). The luciferase RNA was prepared with a luciferase transcription plasmid, designated clone 760, which has been described previously (Tsukamoto et al. (1997) J. Neurochem. 68: 2587-2592). The sense RNA was synthesized with T7 RNA polymerase after linearization of the plasmid with EcoRI. The transcribed RNA was radiolabeled with [^32Pα]ATP, and the correct size of the radiolabeled transcribed sense RNA was determined by agarose/formaldehyde gel electrophoresis followed by film autoradiography. For the RNase protection assay, 0.5 pmol of biotinylated luciferase PNA with or without conjugation to 10 pmol of OX26/SA was added to 10 5 cpm of ^32P-labeled sense luciferase RNA (8 fmol) in 3 μl buffer (50 mM NaCl/5 mM Tris, pH 8/0.5 mM EDTA) and annealed for 30 min at 56° C. Then 15 units of RNase T1 and 0.4 units of RNase A were added to samples in […] of RNase digestion buffer m (Ambion, Austin, Tex.). RNA fragments were analyzed by 7 M urea/20% PAGE and autoradiography, as described previously (Pardridge et al. (1995) Proc. Natl. Acad. Sci., USA, 92: 5592-5596). Labeled RNA and PNA were heat denatured for 2 min at 95° C. and then incubated on ice for 2 min immediately before the experiment or conjugation to OX26/SA.

For data set [3] the following is noted: rat, in vivo, iv. The procedure: Either the unconjugated anti-luciferase PNA or the anti-luciferase PNA conjugated to OX26/SA was injected intravenously into ketamine/xylazine anesthetized adult male Sprague-Dawley rats (270-300 g) by using methods described previously (10). The dose of radioactivity in these experiments was 5 μCi/rat of PNA (0.02 nmol) conjugated to 20 μg/rat of OX26/SA (0.1 nmol).

Another data set deals with HD mRNA. Briefly: HD RNase protection assay. In kind it is binding, human. Conditions: RNase T1/A digestion, PAGE autoradiography. The procedure:
The sense RNA was synthesized with T3 RNA polymerase following linearization of the plasmid with EcoRI. The transcribed RNA was radiolabeled with [^32Pα]ATP to a specific activity of 0.22 μCi/pmol, as previously described (Boado and Pardridge (1994) Bioconj. Chem., 6: 406-410). For the RNAse protection assay, 0.6 pmol of biotinylated HD-PNA or biotinylated luciferase-PNA, with or without conjugation to 6.4 pmol of MAb-SA, was added to 10^5 CPM of [^32P]-labeled sense HD RNA (0.2 pmol) in 3 μl buffer (80 mM NaCl, 7 mM phosphate buffer, pH=7.5, 0.1% BSA), and annealed for 30 minutes at 42° C. Then 20 units RNAse Ti and 2.5 μg RNAse A were added to the samples in 17 μl of RNAse digestion buffer (0.3 M NaCl, 10 mM TRIS pH=7.5, 4 mM EDTA, 0.02% tRNA, 0.02% BSA) and incubated for 30 min at 37° C. RNA fragments were analyzed by 7 M urea/20% polyacrylamide gel electrophoresis following by autoradiography as described by Pardridge et al. (1995) Proc. Natl. Acad. Sci., USA, 92:5592-5596. Labeled RNA and PNAs were heat denatured for 2 minutes at 95° C. and then incubated on ice for 2 minutes immediately before the experiment or conjugation to MAb-SA.

The subject of data set [4] is luciferase mRNA. Briefly: Film autoradiography in rats bearing C6-790 brain tumors. The class given is in vivo, rat. As to conditions: 100 μCi i.v., brain removed at 2 h, C6-790 gliomas in Fischer rats.
Protocol: Fourteen days after implantation of C6-790 cells, the rats were anesthetized with ketamine and xylazine for i.v. injection of brain imaging agents, as described previously (Kurihara et al. (1999) Bioconjugate Chem. 10: 502-511). […] In these studies, each rat received 0.2 nmol of PNA and 40 μg (0.2 nmol) of OX26/SA. Each rat was also administered 20 mg of L-tyrosine and 2 mg of sodium iodide i.p. 15 min before the study to block brain uptake of radiolabeled metabolites such as [^125I]tyrosine or iodide. […]
Another data set deals with C6 experimental tumors. Briefly: Film autoradiography in rats bearing control C6 tumors not transfected with the luciferase transgene. The class given is in vivo, rat. As to conditions: 100 μCi i.v., brain removed at 2 h. The procedure: The C6-790 cells were implanted in the caudate-putamen nucleus of male CD Fischer 344 rats (Harlan Breeders, Indianapolis, Ind.), weighing 250-275 g under stereotaxic guidance, as described previously (Kurihara et al. (1999) Bioconjugate Chem. 10: 502-511). The animals were examined 14 days later. To confirm expression of the luciferase transgene in the tumor in vivo, tumor extracts were prepared in Promega lysis buffer, and luciferase enzyme activity was measured with luciferin as substrate (Promega) by using a Berthold (Nashua, N.H.) luminometer, as described previously (Boado and Pardridge (1998) Mol. Brain Res. 59: 109-113). A luciferase standard curve was also assayed, and the enzyme activity was expressed as picograms of luciferase equivalent per milligram of tissue protein. The C6-790 cells were grown in tissue culture as described previously (Id.), and these cells were also extracted in Promega lysis buffer for measurement of luciferase activity in the cells grown in tissue culture before implantation in brain. Control experiments were performed with C6 cells described previously (13), and these cells were used to develop brain tumors exactly as described above, except these tumor cells were not transfected with the luciferase transgene.
The brain scans and autopsy stains for three different groups of adult Fischer rats bearing the C6-790 gliomas are shown in FIG. 5. […]

Sequence of rat transferrin receptor (rat) (Q99376 whole entry): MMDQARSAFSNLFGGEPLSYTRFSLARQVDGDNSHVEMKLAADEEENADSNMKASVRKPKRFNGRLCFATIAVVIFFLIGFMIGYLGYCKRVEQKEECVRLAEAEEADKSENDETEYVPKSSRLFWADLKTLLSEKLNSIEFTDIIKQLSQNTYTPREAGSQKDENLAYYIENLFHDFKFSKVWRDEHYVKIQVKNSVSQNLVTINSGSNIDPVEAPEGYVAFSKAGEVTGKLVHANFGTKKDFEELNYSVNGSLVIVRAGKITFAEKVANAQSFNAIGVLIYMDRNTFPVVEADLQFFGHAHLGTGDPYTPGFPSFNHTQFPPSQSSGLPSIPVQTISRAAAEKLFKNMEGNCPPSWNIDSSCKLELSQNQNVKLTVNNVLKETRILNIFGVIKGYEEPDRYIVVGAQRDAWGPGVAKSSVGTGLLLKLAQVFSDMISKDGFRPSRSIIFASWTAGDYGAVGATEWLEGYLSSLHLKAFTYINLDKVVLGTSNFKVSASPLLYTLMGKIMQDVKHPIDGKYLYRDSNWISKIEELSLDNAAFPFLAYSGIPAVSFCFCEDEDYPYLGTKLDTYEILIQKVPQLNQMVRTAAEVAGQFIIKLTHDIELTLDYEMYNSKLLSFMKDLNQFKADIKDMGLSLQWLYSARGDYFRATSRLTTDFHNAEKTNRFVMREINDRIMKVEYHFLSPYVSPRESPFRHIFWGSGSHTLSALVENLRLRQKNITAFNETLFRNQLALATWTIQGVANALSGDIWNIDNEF

As to “conjugate of the OX26 mAb (mouse monoclonal antibody to the rat transferrin receptor) and recombinant streptavidin (from UniProt P22629 37-163)”, the uptake of [125I]PNA conjugate by cells after 24 h of incubation (ng PNA per milligram of protein) in data set [1] was found to be 10.
Turning to “antirev PNA: control PNA antisense to the rev gene of HIV, sequence CTCCGCTTCTTCCTGCCA (all peptide nucleic acid (PNA); 125I-radiolabelled, conjugated to streptavidin-OX26 antibody, attachment not given here, further chemistry not fully specified) [reference compound]”, the “uptake by C6 cells” value in the data set with C6 cells is “negligible”. The “uptake by C6-790 cells” value in the data set with C6-790 cells is “negligible”.
As to “antiluciferase PNA: biotinylated 16-mer peptide nucleic acid antisense to luciferase mRNA (CTTCCATTTTACCAAC), linkers, Tyr-Lys, amidated carboxy terminus; radioiodinated (all peptide nucleic acid (PNA); biotinylated, linkers, Tyr-Lys, amidated carboxy terminus, radioiodinated)”, the “hybridization to luciferase sense RNA (protection of 16 mer RNA fragments)” value with luciferase mRNA [2] is on record as “hybridized to the luciferase sense RNA”. In addition, in data set [3], the plasma clearance was 0.432 ± 0.024 L/h/kg. In addition, the “uptake by C6 cells” value in the data set on C6 cells is listed as “negligible”. The “hybridization to HD mRNA (RNase protected fragment)” value in the data set on HD mRNA is on record as “did not protect the RNA from nuclease digestion”. For the same substance, in the data set with luciferase mRNA [4], the “imaging of luciferase gene expression in brain tumor” value is listed as “no imaging of either normal brain or brain tumor”. For the same substance, in the data set with C6-790 cells, the “uptake by C6-790 cells” value is “negligible”. Moreover, the “radioactivity in control C6 tumors” value in the data set on C6 experimental tumors was “no measurable radioactivity was detectable”.
